This is an account of results in patent publication US5244898A, “Benzoheterocyclic compounds” (Otsuka Pharmaceutical Co., Ltd., priority 1991, dated 1993).

Structures can show the parent of a compound that is named as a salt.

The target in the experiment is T1, V2 Receptor (Rattus norvegicus, UniProt Q00788).
T1 construct: rat kidney plasma membrane preparations; from tissue; host or cells: rat kidney plasma membranes
T1 sequence (Q00788 whole entry): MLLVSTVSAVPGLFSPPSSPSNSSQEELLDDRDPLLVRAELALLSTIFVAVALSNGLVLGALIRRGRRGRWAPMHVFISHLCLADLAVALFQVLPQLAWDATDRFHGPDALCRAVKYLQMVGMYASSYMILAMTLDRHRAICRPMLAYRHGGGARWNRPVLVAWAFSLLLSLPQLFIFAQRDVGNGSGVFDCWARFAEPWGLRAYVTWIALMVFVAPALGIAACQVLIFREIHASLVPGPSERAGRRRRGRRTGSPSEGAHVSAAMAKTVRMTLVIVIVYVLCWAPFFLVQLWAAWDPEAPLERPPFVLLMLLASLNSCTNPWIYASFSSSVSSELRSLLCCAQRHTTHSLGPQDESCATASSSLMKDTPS
The experiment can be described thus: V2 Receptor Binding Assay ([3H]-Arg-vasopressin, rat kidney plasma membrane). The settings on record: 4° C., pH 8.0.
Method: Chem., 253, 3211 (1978)], the plasma membrane (100000 dpm, 4×10^-10M) of [^3 H]-Arg-vasopressin and a test compound (0.6 mg, 10^-10 -10^-5 M) are incubated at 4° C. for 3 hours in 100 mM Tris-HCl buffer pH: 8.0 (250 μl ) containing 5 mM MgCl2, 1 mM EDTA and 0.1 % BSA. After incubation, the mixture is filtered using the glass filter (GF/F) so as to separate the membrane preparation combining with vasopressin and then washed twice with the buffer (5 ml). This glass filter is taken out and mixed with liquid scintillation cocktail. The amount of [^3 H]-vasopressin combining with the membrane is measured by liquid scintillation counter and the rate of the inhibitory effect of the test compound is estimated according to the following equation. [formula]
C1 : The amount of [^3 H]-vasopressin combining with the membrane in the presence of the test compound of a known amount.
C0 : The amount of [^3 H]-vasopressin combining with the membrane in the absence of the test compound.
B1 : The amount of [3H-vasopressin combining with the membrane in the presence of the excess amount of vasopressin (10^-6 M).
The results are expressed as IC50 value, which is the concentration of the test compound required to achieve the inhibitory effect in the rate of 50%.
Regarding `CSCC[C@H](N)C(=O)OC1CCCN(C(=O)c2ccc(NC(=O)c3ccccc3C)cc2Cl)c2ccccc21` (single isomer, unassigned) [Test Compound 10, 5-(L-Methionyloxy)-1-[2-chloro-4-(2-methylbenzoylamino)benzoyl]-2,3,4,5-tetrahydro-1H-benzazepine hydrochloride], the IC50 stood at 83 nM. The same measure for `Cc1ccccc1C(=O)Nc1ccc(C(=O)N2CCCC(OC(=O)[C@@H]3CCCN3)c3ccccc32)c(Cl)c1` (single isomer, unassigned) [Test Compound 12, 5-(L-Prolyloxy)-1-[2-chloro-4-(2-methylbenzoylamino)benzoyl]-2,3,4,5-tetrahydro-1H-benzazepine hydrochloride]: 9 nM. Then `CN(C)C1CCCN(C(=O)c2ccc(NC(=O)Cc3ccccc3Cl)cc2)c2ccccc21` (stereo not shown) [Test Compound 3, 5-Dimethylamino-1-{4-[2-(2-chlorophenyl)acetylamino]benzoyl}-2,3,4,5-tetrahydro-1H-benzazepine], with 61 nM; and `COc1ccccc1CC(=O)Nc1ccc(C(=O)N2CCCC(N(C)C)c3ccccc32)cc1` (stereo not shown) [Test Compound 4, 5-Dimethylamino-1-{4-[2-(2-methoxyphenyl)acetylamino]benzoyl}-2,3,4,5-tetrahydro-1H-benzazepine], with 61 nM. The same measure for `CN(C)C1CCCN(C(=O)c2ccc(NC(=O)Cc3ccccc3F)cc2)c2ccccc21` (stereo not shown) [Test Compound 5, 5-Dimethylamino-1-{4-[2-(2-fluorophenyl)acetylamino]benzoyl}-2,3,4,5-tetrahydro-1H-benzazepine]: 59 nM; for `CN(C)C1CCCN(C(=O)c2ccc(NC(=O)Cc3ccccc3[N+](=O)[O-])cc2)c2ccccc21` (stereo not shown) [Test Compound 7, 5-Dimethylamino-1-{4-[2-(2-nitrophenyl)acetylamino]benzoyl}-2,3,4,5-tetrahydro-1H-benzazepine]: 140 nM. With `CN(C)C1CCCN(C(=O)c2ccc(NC(=O)c3ccccc3Cl)cc2Cl)c2ccc(O)cc21` (stereo not shown) [Test Compound 8, 5-Dimethylamino-7-hydroxy-1-[2-chloro-4-(2-chlorobenzoylamino)benzoyl]-2,3,4,5-tetrahydro-1H-benzazepine], the half-inhibitory concentration (IC50) worked out at 250 nM. The same measure for `Cc1ccccc1C(=O)Nc1ccc(C(=O)N2CCCC(OC(=O)[C@H](C)N)c3ccccc32)c(Cl)c1` (stereo partly drawn) [Test Compound 9, 5-(L-Alanyloxy)-1-[2-chloro-4-(2-methylbenzoylamino)benzoyl]-2,3,4,5-tetrahydro-1H-benzazepine hydrochloride]: 17 nM. `CC(=O)Oc1ccc2c(c1)C(N(C)C)CCCN2C(=O)c1ccc(NC(=O)c2ccccc2Cl)cc1Cl` (stereo not shown) [Test Compound 11] came in with an IC50 of 110 nM. Then `O=C(Nc1ccc(C(=O)N2CCCC(O)(CO)c3cc(O)ccc32)c(Cl)c1)c1ccccc1Cl` (stereo not shown) [Test Compound 19, 5,7-Dihydroxy-5-hydroxymethyl-1-[2-chloro-4-(2-chlorobenzoylamino)benzoyl]-2,3,4,5-tetrahydro-1H-benzazepine], with 2800 nM; and `CN(C)C(=O)COc1ccc2c(c1)C(N(C)C)CCCN2C(=O)c1ccc(NC(=O)c2ccccc2Cl)cc1Cl` (stereo not shown) [Test Compound 20, 5-Dimethylamino-7-dimethylaminocarbonylmethoxy-1-[2-chloro-4-(2-chlorobenzoylamino)benzoyl]-2,3,4,5 tetrahydro-1H-benzazepine], with 5600 nM; and `CCOC(=O)CNC(=O)COC1CCCN(C(=O)c2ccc(NC(=O)c3ccccc3C)cc2Cl)c2ccc(F)cc21` (stereo not shown) [Test Compound 21, 5-Ethoxycarbonylmethylaminocarbonylmethoxy-7-fluoro-1-[2-chloro-4-(2-methylbenzoylamino)benzoyl]-2,3,4,5-tetrahydro-1H-benzazepine], with 6 nM. Then `Cc1ccccc1C(=O)Nc1ccc(C(=O)N2CCCC(OCC(=O)NCC(=O)O)c3cc(F)ccc32)c(Cl)c1` (stereo not shown) [Test Compound 22, 5-Carboxymethylaminocarbonylmethoxy-7-fluoro-1-[2-chloro-4-(2-methylbenzoylamino)benzoyl]-2,3,4,5-tetrahydro-1H-benzazepine], with 18 nM; and `COC(=O)[C@@H]1CCCN1C(=O)COC1CCCN(C(=O)c2ccc(NC(=O)c3ccccc3C)cc2Cl)c2ccc(F)cc21` (stereo partly drawn) [Test Compound 23, 5-[(2-β-Methoxycarbonyl)-1-pyrrolidinylcarbonylmethoxy]-7-fluoro-1-[2-chloro-4-(2-methylbenzoylamino)benzoyl]-2,3,4,5-tetrahydro-1H-benzazepine], with 11 nM. Then `COc1cc(NC(=O)c2ccccc2Cl)ccc1C(=O)N1CCCC(CC(=O)O)c2cc(Cl)ccc21` (stereo not shown) [Test Compound 31, 5-Carboxymethyl-7-chloro-1-[2-methoxy-4-(2-chlorobenzoylamino)benzoyl]-2,3,4,5-tetrahydro-1H-benzazepine], with 19 nM. As for `Cc1ccccc1C(=O)Nc1ccc(C(=O)N2CCCC(OCCCN3CCOCC3)c3cc(F)ccc32)c(C)c1` (stereo not shown) [Test Compound 35, 5-(3-Morpholinopropoxy)-7-fluoro-1-[2-methyl-4-(2-methylbenzoylamino)benzoyl]-2,3,4,5-tetrahydro-1H-benzazepine], the IC50 stood at 6.2 nM. As to `Cc1ccccc1C(=O)Nc1ccc(C(=O)N2CCCC(OCCCn3ccnc3)c3cc(F)ccc32)c(C)c1` (stereo not shown) [Test Compound 36, 5-[3-(1-Imidazolyl)propoxy]-7-fluoro-1-[2-methyl-4-(2-methylbenzoylamino)benzoyl]-2,3,4,5-tetrahydro-1H-benzazepine], the IC50 is 7.6 nM. Compound `Cc1ccccc1C(=O)Nc1ccc(C(=O)N2CCCC(CC(=O)N3CCN(C)CC3)c3cc(Cl)ccc32)c(C)c1` (stereo not shown) [Test Compound 41, 5-[(4-Methyl-1-piperazinyl)carbonylmethyl]-7-chloro-1-[2-methyl-4-(2-methylbenzoylamino]benzoyl]-2,3,4,5-tetrahydro-1H-benzazepine] yielded an IC50 of 13 nM. The same measure for `COc1cc(NC(=O)c2ccccc2OCCCCN2CCN(C(C)=O)CC2)ccc1C(=O)N1CCCCc2cc(Cl)ccc21` [Test Compound 49]: 52 nM; for `CC(=O)N1CCN(CCC2CCCN(C(=O)c3ccc(NC(=O)c4ccccc4C)cc3C)c3ccc(Cl)cc32)CC1` (stereo not shown) [Test Compound 53, 5-[2-(1-Acetyl-1-piperazinyl)ethyl]-7-chloro-1-[2-methyl-4-(2-methylbenzoylamino)benzoyl]-2,3,4,5-tetrahydro-1H-benzazepine hydrochloride]: 29 nM. The same measure for `Cc1ccccc1C(=O)Nc1ccc(C(=O)N2CCCC(OCC(=O)NC3CCNCC3)c3cc(Cl)ccc32)c(C)c1` (stereo not shown) [Test Compound 57, 7-Chloro-5-[(4-piperidinyl)aminocarbonylmethoxy]-1-[2-methyl-4-(2-methylbenzoylamino)benzoyl]-2,3,4,5-tetrahydro-1H-benzazepine hydrochloride]: 9 nM. Then `Cc1ccccc1C(=O)Nc1ccc(C(=O)N2CCCC(OCC(=O)NC3CCN(C)CC3)c3cc(Cl)ccc32)c(C)c1` (stereo not shown) [Test Compound 59, 5-[(1-Methyl-4-piperidinyl)aminocarbonyl-methoxy]-7-chloro-1-[2-methyl-4-(2-methylbenzoylamino)-benzoyl]-2,3,4,5-tetrahydro-1H-benzazepine], with 9 nM.

The IC50 is the concentration needed to halve the response being measured.
